# Key:
# [1] = target: T1, PDE2 (cGMP-dependent 3',5'-cyclic phosphodiesterase; PDE2A) (Homo sapiens, UniProt O00408); experiment: MicroScale Thermophoresis, 12-concentration dilution; format: binding
# [2] = target: T1, PDE2 (cGMP-dependent 3',5'-cyclic phosphodiesterase; PDE2A); experiment: biochemical
# T1 sequence (O00408 2-941): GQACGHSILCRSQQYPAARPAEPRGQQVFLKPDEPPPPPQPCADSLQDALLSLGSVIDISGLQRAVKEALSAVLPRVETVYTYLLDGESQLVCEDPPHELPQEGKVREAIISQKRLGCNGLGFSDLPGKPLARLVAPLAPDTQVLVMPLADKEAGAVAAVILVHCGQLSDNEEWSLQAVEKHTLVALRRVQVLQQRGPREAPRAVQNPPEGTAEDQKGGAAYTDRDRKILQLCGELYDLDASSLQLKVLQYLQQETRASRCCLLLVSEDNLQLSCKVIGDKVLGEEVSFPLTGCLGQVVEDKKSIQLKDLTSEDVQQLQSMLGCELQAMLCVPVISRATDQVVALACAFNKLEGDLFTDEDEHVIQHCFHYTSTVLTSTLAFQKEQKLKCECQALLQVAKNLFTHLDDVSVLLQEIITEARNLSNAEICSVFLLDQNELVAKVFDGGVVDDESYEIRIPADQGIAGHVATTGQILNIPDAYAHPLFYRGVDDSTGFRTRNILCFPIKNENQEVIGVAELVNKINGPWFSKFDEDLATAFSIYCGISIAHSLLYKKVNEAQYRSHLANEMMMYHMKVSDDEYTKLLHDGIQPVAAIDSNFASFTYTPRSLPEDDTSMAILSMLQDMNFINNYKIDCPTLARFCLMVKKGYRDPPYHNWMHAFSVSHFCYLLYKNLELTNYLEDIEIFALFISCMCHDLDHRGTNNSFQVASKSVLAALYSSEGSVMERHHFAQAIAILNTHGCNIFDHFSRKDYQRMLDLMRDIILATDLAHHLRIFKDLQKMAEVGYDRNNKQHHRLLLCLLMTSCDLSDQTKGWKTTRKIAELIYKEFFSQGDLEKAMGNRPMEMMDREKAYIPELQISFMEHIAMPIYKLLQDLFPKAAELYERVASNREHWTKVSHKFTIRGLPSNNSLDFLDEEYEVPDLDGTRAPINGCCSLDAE
Kd [1],SMILES,further results
–,CCn1c(=O)c(=O)[nH]c2cc(C(=O)Nc3nc(-c4cccnc4)cs3)ccc21 [Z29458849],"Kd ([1]; dye-labelled PDE2, 1:1 fit): 24.9 µM; Kd ([2]; binder): 21.1 µM"
> 100 µM,O=C(Nc1ccc(Cl)cc1F)c1ccc(-n2cnc3ccccc32)cc1 [Z87546752],–
–,O=C(O)c1ccc(C=C2Cc3c(O)cccc3C2=O)cc1 [Z217160080],"Kd ([1]; read-out: apparent KD, dye-labelled PDE2, weak binder, no KD fit): > 100 µM"
> 100 µM,CCSc1nc2ccccc2c2nc(C)nn12 [Z226974122],–
> 100 µM,Cc1nccc(C(=O)Nc2[nH]ncc2-c2cccc(Cl)c2)n1 [Z973817294],–
14.2 µM,CSc1nc(Cl)c(C)c(NCC2CCOC2)n1 (stereo not shown) [Z3216015031],Kd [2]: 12.8 µM

SMILES,Kd [1],further results
CSc1nc2ccccc2c(=O)n1-c1ccc(F)cc1F [Z19056583],10.1 µM,Kd [2]: 9.58 µM
